Test results as given in ChEMBL document CHEMBL1201862, “PubChem BioAssay data set” (2004).
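Results reflect a 48-hour exposure of cells in 96-well plates to compound at five concentrations. GI50: concentration for 50% inhibition of growth.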 Calls of active or inactive are those of the source. Cut-off read from the data, not from the text of the source: active = GI50 up to about 1.1 µM and inactive = higher. Where a SMILES comes first, the peptide text is derived from it. The star is where a group is joined. ONb = O=[N+]([O-])c1ccc(CO*)cc1; Boc = CC(C)(C)OC(=O)*

Key:
Assay in all cases: NCI tumour cell line growth inhibition, 48 h
[1] = tested on: MDA-MB-231
[2] = tested on: SK-MEL-2
[3] = tested on: MDA-N
[4] = tested on: CCRF-CEM
[5] = tested on: UO-31
[6] = tested on: NCI/ADR-RES
[7] = tested on: A549
[8] = tested on: M14
[9] = tested on: HOP-62
[10] = tested on: HOP-92
[11] = tested on: NCI-H226
[12] = tested on: SF-295
[13] = tested on: IGROV-1
[14] = tested on: SW-620
[15] = tested on: SF-268
[16] = tested on: TK-10
[17] = tested on: DU-145
[18] = tested on: Hs-578T
[19] = tested on: U-251

Compound	GI50 [1]	GI50 [2]	GI50 [3]	GI50 [4]	GI50 [5]	GI50 [6]	GI50 [7]	GI50 [8]	GI50 [9]	GI50 [10]	GI50 [11]	GI50 [12]	GI50 [13]	GI50 [14]	GI50 [15]	GI50 [16]	GI50 [17]	GI50 [18]	GI50 [19]
COC(=O)c1cc(-c2ccc(-c3ccc(O)cc3)cc2)cc(-c2ccc(-c3ccc(O)cc3)cc2)c1	17.9 µM (inactive)	15.3 µM (inactive)	11 µM (inactive)	14.8 µM (inactive)	11.5 µM (inactive)	11.7 µM (inactive)	8.45 µM (inactive)	13.4 µM (inactive)	12.1 µM (inactive)	6.62 µM (inactive)	12.7 µM (inactive)	6.75 µM (inactive)	6.44 µM (inactive)	7.11 µM (inactive)	4.04 µM (inactive)	13.6 µM (inactive)	–	–	–
O=C1NCN(c2ccccc2)C12CCN(CCCSc1ccc(F)cc1)CC2	5.52 µM (inactive)	15.1 µM (inactive)	–	7 µM (inactive)	48.5 µM (inactive)	> 48 µM (inactive)	33.1 µM (inactive)	6.25 µM (inactive)	25.5 µM (inactive)	9.71 µM (inactive)	25.5 µM (inactive)	39 µM (inactive)	9.1 µM (inactive)	> 49.1 µM (inactive)	28.8 µM (inactive)	24.2 µM (inactive)	11 µM (inactive)	> 42.1 µM (inactive)	> 88.5 µM (inactive)
Nc1nc(N)c2c(n1)NC(=O)c1c(c3ccccc3n1Cc1ccc(Cl)cc1)C2	–	32.4 µM (inactive)	16.6 µM (inactive)	17.7 µM (inactive)	> 100 µM (inactive)	26.6 µM (inactive)	21.1 µM (inactive)	37.8 µM (inactive)	25.5 µM (inactive)	1.5 µM (inactive)	37.6 µM (inactive)	34.2 µM (inactive)	29.6 µM (inactive)	35.8 µM (inactive)	45.5 µM (inactive)	21.5 µM (inactive)	14.4 µM (inactive)	24 µM (inactive)	25.8 µM (inactive)
CC(=O)Nc1ccc(C(=O)NN2C(=O)C(Cl)C2c2ccc(O)cc2)cc1 (centres undefined)	–	> 100 µM (inactive)	–	> 100 µM (inactive)	> 100 µM (inactive)	–	> 100 µM (inactive)	> 100 µM (inactive)	57.9 µM (inactive)	–	> 100 µM (inactive)	> 100 µM (inactive)	> 100 µM (inactive)	> 100 µM (inactive)	64.1 µM (inactive)	> 100 µM (inactive)	–	–	> 100 µM (inactive)
CC(C)=CCC/C(C)=C/CCC(C(=O)COCc1ccccc1)P1(=O)OC(C)(C)CN1C(C)(C)C (centres undefined)	> 100 µM (inactive)	35.5 µM (inactive)	> 100 µM (inactive)	30.6 µM (inactive)	50.4 µM (inactive)	31.5 µM (inactive)	35.6 µM (inactive)	93.5 µM (inactive)	> 100 µM (inactive)	–	30.6 µM (inactive)	46.6 µM (inactive)	91.4 µM (inactive)	> 100 µM (inactive)	33.1 µM (inactive)	> 100 µM (inactive)	81.7 µM (inactive)	–	> 100 µM (inactive)
Cc1c(C(=O)CSc2nc3ccccc3[nH]2)c(=O)n(-c2ccccc2)n1C	–	> 100 µM (inactive)	–	> 100 µM (inactive)	> 100 µM (inactive)	–	> 100 µM (inactive)	> 100 µM (inactive)	> 100 µM (inactive)	> 100 µM (inactive)	> 100 µM (inactive)	> 100 µM (inactive)	> 100 µM (inactive)	> 100 µM (inactive)	> 100 µM (inactive)	> 100 µM (inactive)	–	–	> 100 µM (inactive)
CC1=CC(=O)NP(=O)(C23CC4CC(CC(C4)C2)C3)N1 (centres undefined)	–	> 100 µM (inactive)	–	> 100 µM (inactive)	> 100 µM (inactive)	–	–	> 100 µM (inactive)	> 100 µM (inactive)	> 100 µM (inactive)	> 100 µM (inactive)	> 100 µM (inactive)	> 100 µM (inactive)	> 100 µM (inactive)	> 100 µM (inactive)	> 100 µM (inactive)	–	–	> 100 µM (inactive)
CC(C)CC(NC(=O)OC(C)(C)C)C(=O)NC(CCC(=O)OCc1ccc([N+](=O)[O-])cc1)C(=O)OCc1ccc([N+](=O)[O-])cc1 (stereo not drawn) (Boc-Leu-Glu(ONb)-ONb; configuration not given here)	> 100 µM (inactive)	22.1 µM (inactive)	44.8 µM (inactive)	19.8 µM (inactive)	82.6 µM (inactive)	> 100 µM (inactive)	–	26.2 µM (inactive)	> 100 µM (inactive)	56.4 µM (inactive)	–	43.4 µM (inactive)	24.4 µM (inactive)	50.9 µM (inactive)	18.4 µM (inactive)	28.6 µM (inactive)	13.5 µM (inactive)	–	27.6 µM (inactive)
O=C1OC(O)C(Oc2c(Cl)cccc2Cl)=C1Cl (centres undefined)	–	15.3 µM (inactive)	–	19.9 µM (inactive)	14.1 µM (inactive)	–	17.2 µM (inactive)	17 µM (inactive)	17.7 µM (inactive)	18 µM (inactive)	18.4 µM (inactive)	17.5 µM (inactive)	17.2 µM (inactive)	15.1 µM (inactive)	16 µM (inactive)	23.6 µM (inactive)	–	–	13.8 µM (inactive)
CCCCCCc1cc2cc(-c3cn4ccsc4n3)c(=O)oc2cc1O	> 75 µM (inactive)	> 100 µM (inactive)	–	> 68.5 µM (inactive)	> 100 µM (inactive)	> 100 µM (inactive)	> 100 µM (inactive)	–	64.9 µM (inactive)	> 100 µM (inactive)	> 100 µM (inactive)	> 100 µM (inactive)	> 100 µM (inactive)	> 79.6 µM (inactive)	> 58.2 µM (inactive)	> 95.3 µM (inactive)	> 79.1 µM (inactive)	20.4 µM (inactive)	45.6 µM (inactive)
O=C1CCCCC[C@]12SC[C@H]1CON=C12	–	–	12.5 µM (inactive)	21.9 µM (inactive)	26.9 µM (inactive)	25.9 µM (inactive)	37.1 µM (inactive)	22.3 µM (inactive)	–	12.9 µM (inactive)	> 100 µM (inactive)	> 100 µM (inactive)	47.5 µM (inactive)	50.8 µM (inactive)	–	> 100 µM (inactive)	33.8 µM (inactive)	59 µM (inactive)	12.3 µM (inactive)
CCCCP1(=O)C=CC(Cl)=C(C)C1 (centres undefined)	–	> 100 µM (inactive)	–	> 100 µM (inactive)	> 100 µM (inactive)	–	> 100 µM (inactive)	> 100 µM (inactive)	> 100 µM (inactive)	> 100 µM (inactive)	–	> 100 µM (inactive)	> 100 µM (inactive)	> 100 µM (inactive)	> 100 µM (inactive)	> 100 µM (inactive)	–	–	> 100 µM (inactive)
CSc1ncnc2c1ncn2CCC(=O)O	> 100 µM (inactive)	–	> 100 µM (inactive)	> 100 µM (inactive)	> 100 µM (inactive)	> 100 µM (inactive)	> 100 µM (inactive)	> 100 µM (inactive)	> 100 µM (inactive)	> 100 µM (inactive)	> 100 µM (inactive)	> 100 µM (inactive)	> 100 µM (inactive)	> 100 µM (inactive)	> 100 µM (inactive)	> 100 µM (inactive)	> 100 µM (inactive)	–	–
CCCCN(CCCC)/C(=N\C#N)NCc1ccccc1	–	21.7 µM (inactive)	–	12.1 µM (inactive)	11.2 µM (inactive)	–	25.8 µM (inactive)	22.3 µM (inactive)	28.4 µM (inactive)	14.4 µM (inactive)	24.3 µM (inactive)	14.3 µM (inactive)	24.8 µM (inactive)	15.8 µM (inactive)	29.4 µM (inactive)	25.1 µM (inactive)	–	–	15.3 µM (inactive)
COc1ccc(OC)c(C(Cc2ccnc3ccccc23)Cc2ccnc3ccccc23)c1	> 10 µM (inactive)	9.73 µM (inactive)	–	8.57 µM (inactive)	6.68 µM (inactive)	8.39 µM (inactive)	> 10 µM (inactive)	> 10 µM (inactive)	> 10 µM (inactive)	4.09 µM (inactive)	9.57 µM (inactive)	6.71 µM (inactive)	> 10 µM (inactive)	> 10 µM (inactive)	> 10 µM (inactive)	> 10 µM (inactive)	> 10 µM (inactive)	8.63 µM (inactive)	> 10 µM (inactive)
Nc1ccc(C(=O)NN2C(=O)[C@H](Cl)C2c2ccc(Cl)cc2)cc1 (some centres undefined)	1.81 µM (inactive)	1.89 µM (inactive)	–	–	2.07 µM (inactive)	1.65 µM (inactive)	2.45 µM (inactive)	1.58 µM (inactive)	1.77 µM (inactive)	1.87 µM (inactive)	0.714 µM (active)	4.55 µM (inactive)	1.65 µM (inactive)	2.11 µM (inactive)	1.06 µM (active)	0.838 µM (active)	1.56 µM (inactive)	–	1.22 µM (inactive)
CC(C)(C)C1=NC(=S)SC2=NC(=O)C3(NN21)c1ccccc1-c1ccccc13	9.46 µM (inactive)	–	8.41 µM (inactive)	8.71 µM (inactive)	6.58 µM (inactive)	5.41 µM (inactive)	7.26 µM (inactive)	> 10 µM (inactive)	> 10 µM (inactive)	> 10 µM (inactive)	6.07 µM (inactive)	> 10 µM (inactive)	> 10 µM (inactive)	> 10 µM (inactive)	> 10 µM (inactive)	> 10 µM (inactive)	> 10 µM (inactive)	–	–
